Assay results taken from patent publication US20110046066A1, “INHIBITORS OF IAP” (GENENTECH, INC., priority 2008, published 2011).
pIC50, pKi: −log10 of the molar value. Values joined by “and” are separate entries in the source; they are usually repeats but may differ in a detail not shown here. Identical values can stand only once.

Tests used:
C-IAP2 BIR3 = biological target: T1, C-IAP2 BIR3 (Homo sapiens, UniProt Q13489); assay: Fluorescence polarization peptide binding assay, C-IAP2 BIR3; details: for pIC50: 0.4 μM C-IAP-2 BIR3, 5 nM AVP-diPhe-FAM probe, one hour incubation; for pKi: determined from the IC50 values (procedure of Keating et al.)
T1 construct: 0.4 μM C-IAP-2 BIR3
Method: (§1) Polarization experiments were performed on an Analyst HT 96-384 reader (Molecular Devices Corp.) in order to determine dissociation constants (Kd) between IAP protein BIR domains and the fluorescent probe. Samples for fluorescence polarization affinity experiments were prepared by addition of serial dilutions of IAP BIR domains (C-IAP1 BIR3, C-IAP-2 BIR3, ML/X-IAP chimera MLXBIR3SG and X-IAP BIR3) in polarization buffer (50 mM Tris [pH 7.2], 120 mM NaCl, 1% bovine globulins 5 mM DTT and 0.05% octylglucoside) to 5-carboxyflourescein-conjugated AVPdi-Phe-NH2 (AVP-diPhe-FAM) at 5 nM final concentration.
(§2) The reactions were read after an incubation time of 1 hour at room temperature with standard cut-off filters for the fluorescein fluorophore (λex=485 nm; λem=530 nm) in 384-well black plates (Molecular Devices Corp.). Fluorescence polarization values were plotted as a function of the protein concentration, and the effective concentration 50 (EC50) values were obtained by fitting the data to a 4-parameter equation using Kaleidagraph software (Synergy software, Reading, Pa.). The apparent Kd values were determined from the EC50 values. Inhibition Constants (Ki values) for the antagonists were determined by the addition of 0.06 μM MLXBIR3SG, 0.5 μM X-IAP BIR3, 0.2 μM C-IAP1 BIR3 or 0.4 μM C-IAP-2 BIR3 to wells containing 5 nM of the AVP-diPhe-FAM probe as well as 1:3 serial dilutions of antagonist compounds starting at a concentration of 200 μM in the polarization buffer. Samples were read after an incubation time of one hour. Fluorescence polarization values were plotted as a function of the antagonist concentration, and the IC50 values were obtained by fitting the data to a 4-parameter equation using Kaleidagraph software (Synergy software, Reading, Pa.). Ki values for the antagonists were determined from the IC50 values according to the procedure of Keating, S. M., Marsters, J, Beresini, M., Ladner, C., Zioncheck, K., Clark, K., Arellano, F., and Bodary, S. (2000) in Proceedings of SPIE: In Vitro Diagnostic Instrumentation (Cohn, G. E., Ed.) pp 128-137, Bellingham, Wash. […] All values are micromolar.

[1] = biological target: T2, ML/X-IAP chimera MLXBIR3SG (Homo sapiens, UniProt Q96CA5, S150G); assay: Fluorescence polarization peptide binding assay, MLXBIR3SG; details: for pIC50: 0.06 μM MLXBIR3SG, 5 nM AVP-diPhe-FAM probe, one hour incubation; for pKi: determined from the IC50 values (procedure of Keating et al.)
T2 sequence (Q96CA5 with tags, fused parts or gaps S150G): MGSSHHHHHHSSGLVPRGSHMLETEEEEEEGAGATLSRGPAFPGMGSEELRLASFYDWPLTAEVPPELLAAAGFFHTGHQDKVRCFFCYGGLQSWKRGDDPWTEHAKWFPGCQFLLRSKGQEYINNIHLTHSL
Method: The following fluorescence polarization experiments used a chimeric BIR domain referred to as MLXBIR3SG in which 11 of 110 residues correspond to those found in XIAP BIR3, while the remainder correspond to ML-IAP BIR. […] The improved caspase-9 inhibition of the chimeric BIR domain MLXBIR3SG has been correlated with increased inhibition of doxorubicin-induced apoptosis when transfected into MCF7 cells.
as §1, §2

C-IAP1 BIR3 = biological target: T3, C-IAP1 BIR3 (Homo sapiens, UniProt Q13490); assay: Fluorescence polarization peptide binding assay, C-IAP1 BIR3; details: for pIC50: 0.2 μM C-IAP1 BIR3, 5 nM AVP-diPhe-FAM probe, one hour incubation; for pKi: determined from the IC50 values (procedure of Keating et al.)
T3 construct: 0.2 μM C-IAP1 BIR3
Method: as §1, §2

X-IAP BIR3 = biological target: T4, X-IAP BIR3 (Homo sapiens, UniProt P98170); assay: Fluorescence polarization peptide binding assay, X-IAP BIR3; details: for pIC50: 0.5 μM X-IAP BIR3, 5 nM AVP-diPhe-FAM probe, one hour incubation; for pKi: determined from the IC50 values (procedure of Keating et al.)
T4 construct: 0.5 μM X-IAP BIR3
Method: as §1, §2

T3 sequence (Q13490 253-363 limits assumed): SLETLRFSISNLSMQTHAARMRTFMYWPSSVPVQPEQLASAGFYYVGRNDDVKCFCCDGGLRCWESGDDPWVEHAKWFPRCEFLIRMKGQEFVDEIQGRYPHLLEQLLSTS
T4 sequence (P98170 241-356 limits assumed): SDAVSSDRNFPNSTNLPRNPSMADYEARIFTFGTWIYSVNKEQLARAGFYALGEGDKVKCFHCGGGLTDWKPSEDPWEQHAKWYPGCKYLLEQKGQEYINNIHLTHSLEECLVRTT
T1 sequence (Q13489 238-349 limits assumed): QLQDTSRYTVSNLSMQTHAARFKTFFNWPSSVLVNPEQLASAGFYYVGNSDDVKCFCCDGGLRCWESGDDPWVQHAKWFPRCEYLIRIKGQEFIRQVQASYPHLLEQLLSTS

Structure (SMILES)	pIC50 (C-IAP2 BIR3)	pKi (C-IAP2 BIR3)	pIC50 [1]	pKi [1]	pIC50 (C-IAP1 BIR3)	pKi (C-IAP1 BIR3)	pIC50 (X-IAP BIR3)	pKi (X-IAP BIR3)
CN[C@@H](C)C(=O)N[C@H](C(=O)N[C@H](C(=O)Nc1snnc1-c1ccccc1)C(C)(C)C)C1CCCCC1 [Compound 1]	6.33 and 6.65	7.00 and 7.31	6.72 and 6.74	7.37 and 7.39	6.55 and 6.78	7.36 and 7.59	5.00 and 4.83	5.75 and 5.58
CN[C@@H](C)C(=O)N[C@H](C(=O)N(C)[C@H](C(=O)Nc1ccccc1-c1ncccn1)C(C)C)C1CCCCC1 [Compound 7]	4.57	5.34	< 3.70	< 4.34	4.85	5.51	< 3.70	< 4.46
CN[C@@H](C)C(=O)N[C@H](C(=O)N[C@H](C(=O)NCC(c1ccccc1)c1ccccc1)C(F)(F)F)C1CCCCC1 [Compound 8]	5.71	6.38	6.05	6.69	5.51	6.32	< 3.70	< 4.46
CN[C@@H](C)C(=O)N[C@H](C(=O)N[C@H](C(=O)NCC(c1ccccc1)c1ccccc1)C(C)(C)OC)C1CCOCC1 [Compound 9]	–	–	–	–	5.23 and 5.50	6.04 and 6.31	< 3.70	< 4.46
CN[C@@H](C)C(=O)N[C@H](C(=O)N[C@H](C(=O)Nc1sc(-c2cnccn2)nc1-c1ccccc1)C(C)(C)C)c1ccccc1 [Compound 11]	4.46	5.13	~4.22	4.86	4.87	5.68	< 3.70	< 4.46
CN[C@@H](C)C(=O)N[C@H](C(=O)N[C@H](C(=O)NCC(c1ccccc1)c1ccccc1)C(C)(C)O)C(C)C [Compound 12]	4.72	5.38	5.59	6.24	5.16	5.97	< 3.70	< 4.46
CN[C@@H](C)C(=O)N[C@H](C(=O)N[C@H](C(=O)NCC(c1ccccc1)c1ccccc1)C(C)(C)SC)C1CCCCC1 [Compound 13]	5.20	5.87	5.37	6.02	5.41	6.22	< 3.70	< 4.46
CN[C@H](C)C(=O)N[C@@H](C(=O)N[C@@H](C(=O)NCC(c1ccccc1)c1ccccc1)C(C)(C)C)C1CCCCC1 [Compound 15]	5.12	5.79	5.54	6.18	5.44	6.25	< 3.70	< 4.46
CN[C@@H](C)C(=O)N[C@H](C(=O)N[C@H](C(=O)Nc1cc(C)nn1-c1ccccc1)C(C)(C)SCc1ccc(OC)cc1)C1CCCCC1 [Compound 16]	5.88	6.54	5.34	5.99	6.13	6.94	< 3.70	< 4.46
CN[C@@H](C)C(=O)N[C@H](C(=O)N[C@H](C(=O)NCC(c1ccccc1)c1ccccc1)C(C)(C)SCc1ccc(OC)cc1)C1CCCCC1 [Compound 17]	5.19	5.85	5.29	5.93	5.19	6.00	< 3.70	< 4.46
CN[C@@H](C)C(=O)N[C@H](C(=O)N[C@H](C(=O)NCC(c1ccccc1)c1ccccc1)C(C)(C)SCNC(C)=O)C1CCCCC1 [Compound 18]	5.36	6.03	5.61	6.25	5.59	6.40	< 3.70	< 4.46
CN[C@@H](C)C(=O)N[C@H](C(=O)N[C@H](c1nc(-c2ccc(F)c3ccccc23)cs1)C(C)(C)SCc1ccc(OC)cc1)C1CCCCC1 [Compound 22]	5.61	6.28	5.05	5.69	5.64	6.45	< 3.70	< 4.46

The remaining lines, values ahead:

pIC50 (C-IAP2 BIR3)	pKi (C-IAP2 BIR3)	pIC50 [1]	pKi [1]	pIC50 (C-IAP1 BIR3)	pKi (C-IAP1 BIR3)	pIC50 (X-IAP BIR3)	pKi (X-IAP BIR3)	Structure (SMILES)
6.59	7.26	6.55	7.19	6.72	7.52	4.95	5.70	CN[C@@H](C)C(=O)N[C@H](C(=O)N[C@H](C(=O)Nc1snnc1-c1ccccc1)C(C)(C)OC)C1CCCCC1 [Compound 2]
6.57	7.23	6.75	7.39	6.61	7.42	4.95	5.70	CN[C@@H](C)C(=O)N[C@H](C(=O)N[C@H](C(=O)Nc1snnc1-c1ccccc1)C1(C)CCOCC1)C1CCCCC1 [Compound 3]
5.46	6.12	5.32	5.96	5.67	6.48	4.87	5.62	CN[C@@H](C)C(=O)N[C@H](C(=O)N[C@H](C(=O)Nc1snnc1-c1ccccc1)C(F)(F)F)C1CCCCC1 [Compound 5]
6.65	7.32	6.61	7.24	6.88	7.70	5.05	5.80	CN[C@@H](C)C(=O)N[C@H](C(=O)N[C@H](C(=O)Nc1snnc1-c1ccccc1)C(C)(C)F)C1CCCCC1 [Compound 6]
5.95	6.61	5.62	6.26	6.15	6.97	4.44	5.19	CN[C@@H](C)C(=O)N[C@H](C(=O)N[C@H](C(=O)Nc1snnc1-c1ccccc1)C(C)(C)S(C)(=O)=O)C1CCCCC1 [Compound 10]
6.65	7.31	6.60	7.24	6.85	7.66	4.58	5.33	CN[C@@H](C)C(=O)N[C@H](C(=O)N(C)[C@H](C(=O)Nc1snnc1-c1ccccc1)C(C)C)C1CCCCC1 [Compound 14]
6.47	7.13	6.27	6.91	6.54	7.35	~4.00	4.75	CN[C@@H](C)C(=O)N[C@H](C(=O)N[C@H](C(=O)Nc1snnc1-c1ccccc1)C(C)(C)SCc1ccc(OC)cc1)C1CCCCC1 [Compound 19]
6.69	7.36	6.60	7.24	6.88	7.68	4.66	5.41	CN[C@@H](C)C(=O)N[C@H](C(=O)N[C@H](C(=O)Nc1snnc1-c1ccccc1)C(C)(C)SC)C1CCCCC1 [Compound 20, (R)-2-((S)-2-cyclohexyl-2-((S)-2-(methylamino)propanamido)-acetamido)-3-methyl-3-(methylthio)-N-(4-phenyl-1,2,3-thiadiazol-5-yl)butanamide]
6.47	7.13	6.39	7.03	6.69	7.51	4.65	5.40	CN[C@@H](C)C(=O)N[C@H](C(=O)N[C@H](C(=O)Nc1snnc1-c1ccccc1)C(C)(C)SCNC(C)=O)C1CCCCC1 [Compound 21]
6.56	7.22	6.52	7.16	6.81	7.62	4.85	5.60	CN[C@@H](C)C(=O)N[C@H](C(=O)N(C)[C@H](C(=O)Nc1snnc1-c1ccccc1)C(C)(C)SC)C1CCCCC1 [Compound 23]
